From patent US6274146A, “Biologically active phytogenous proteoglycan and a method of making thereof” (priority 1999, dated 2001)

System: 1-st type of simple virus herpes, Kleiman strain
Assay: Herpetic meningoencephalitis model in mice
Format: in vivo, white mice
Settings: for Lethality rate / ML (mean lifespan) / Protective effect (difference between survival rates in experimental and control groups) / Survival rate: introduced 3, 24, 48, 72 and 96 h after infecting
Description: Proteoglycan efficiency was estimated by means of herpetic menigeoencephalitis model in mice. The 1-st type of simple virus herpes of Kleiman strained was used. The virus infectuous titer in Vero cells culture was of 6.5-7.01 1 g CPA50^1 /0.1 ml while by intracerebral or intraperitonneal introduction in white mice mass of 7-8 g it was equal to 5.5-6.0 1 g LD50 /0.03 ml. The strain is characterized by increased neurovirulence. The maximum lesion of cells of fibroblasts in hen embryons or of Vero cells (75-100%) was already observed in 18-20 h after infecting. To reproduce herpetic meningoencephalitis in mice the latter were infected with Kleiman virus intraperitonneally in volume of 0.2 ml of both 10 and 100 LD50 doses. The treatment results were estimated as a mean lifespan (ML) and the protective effect which is difference between survival rates in experimental and control groups.
*-proteoglycan was introduced 5 days before infecting
**-proteoglycan was introduced 5 days until infecting and 3 h after the
** Acyclovir was introduced in 3, 24, 48, 72 and 96 h after the infecting.

`Nc1nc2c(ncn2COCCO)c(=O)[nH]1` [Acyclovir] was tested, and the Lethality rate (10 LD50 virus dose) was 68%, the “ML (mean lifespan)” value (10 LD50 virus dose) was 7.81 ± 1.9 days and the “Protective effect (difference between survival rates in experimental and control groups)” value (10 LD50 virus dose) was 15%. The Survival rate (10 LD50 virus dose) was 32%, the Effect observed (100 LD50 virus dose) was “no effect was observed” and the Lethality rate (100 LD50 virus dose) was 100%. The “ML (mean lifespan)” value (100 LD50 virus dose) was 5.3 ± 1.8 days, the “Protective effect (difference between survival rates in experimental and control groups)” value (100 LD50 virus dose) was 0% and the Survival rate (100 LD50 virus dose) was 0%.
